The subject of data set [1] is Vibrio fischeri. Briefly: Acute toxicity of gaseous VOCs to hydrogel-microsphere-fixed Vibrio fischeri in exposure chamber (luminescence change). Format: cell-based. To be noted: for IC50: Aliivibrio fischeri; for IC50 (15 min) Ratio: liquid IC50 / gaseous IC50, 15 min; for IC50 (30 min) Ratio: liquid IC50 / gaseous IC50, 30 min; for IC50 (45 min) Ratio: liquid IC50 / gaseous IC50, 45 min; for IC50 (60 min) Ratio: liquid IC50 / gaseous IC50, 60 min; for minimum detection limit: no pre-concentration. On the procedure: A method for using the exposure device for exposing microorganisms to gaseous pollutants provided in the present application includes steps as follows: • (1) preparing the hydrogel microspheres with microorganisms: culturing microorganisms in a culture medium dissolved with 1.5% of sodium alginate for 3 h to 4 h, and after OD600 is greater than 0.1, uniformly dripping the microorganisms into a 1.5% calcium chloride solution through a peristaltic pump at a rate of 1.5 ml/min to obtain the hydrogel microspheres with microorganisms; taking out and placing the hydrogel microspheres in a culture medium for use; • (2) sequentially loading the hydrogel microspheres fixed with microorganisms in the multi-well exposure tray according to a detection requirement, and detecting an initial intensity of fluorescent signals of the hydrogel microspheres fixed with microorganisms; • (3) fixing the multi-well exposure tray to a lower end of the vertical pipe of the T-shaped air flow-mixing pipe through threads, and connecting the pressurizing air outlet pipe to the T-shaped air flow-mixing pipe, wherein silicone seal gaskets are mounted at all threaded connections to ensure leakproofness of the exposure device; • (4) placing the exposure device in an in-situ multi-toxicity endpoint detection system for VOCs or an in-situ multi-toxicity endpoint detection system for atmospheric particulate matter to make the gaseous pollutants enter the exposure device through the first and second depressurizing air inlet pipes at a flow rate ranging from 0.3 L/min to 2.0 L/min; and • (5) continuously introducing the gaseous pollutants for 15 min to 60 min, and then introducing clean air for 8 min to 10 min to completely replace the gaseous pollutants in the detection system; removing the multi-well exposure tray, and sequentially placing the hydrogel microspheres in the multi-well exposure tray into a 96 well plate, and detecting a final intensity of fluorescent signals of the hydrogel microspheres fixed with microorganisms in the plurality of channels by using a microplate reader to obtain an intensity change of fluorescent signals.
A commercial VOCs generator is used to accurately generate seven different VOCs with nine gradient concentrations, involving aldehydes (formaldehyde and acetaldehyde), pyridines (pyridine), alcohols (n-butyl alcohol), acyls and ketones (acetylacetone), benzenes, and phenols (phenol). Natural luminescent bacteria Vibrio fischeri as a target, is fixed by using hydrogel microspheres, and is arranged in an exposure chamber. VOCs are sequentially introduced into the exposure chamber at a flow rate of 0.5 L/min. After exposure for 15 min, 30 min, 45 min, and 60 min, Vibrio fischeri is taken out, and intensity change of fluorescent signals of Vibrio fischeri are measured by using a microplate reader. Concentration-acute toxicity curves of the gaseous pollutant comprising different VOCs and mixed VOCs are fitted by using analysis software, to obtain the IC50 value of acute toxicity of the gaseous pollutants.

The test system of data set [2] is Vibrio fischeri. Kind of data set: Acute toxicity exposure experiments of VOCs in a liquid state (conventional method). Format: cell-based. The settings on record: for IC50: Aliivibrio fischeri.
Data set [3] has as its system Vibrio fischeri. To be noted: concentration ratio 10 times.
Description: (1) According to a detection requirement in this embodiment, the quantity of the multi-well exposure tray that need to be loaded is 1, and only one type of the hydrogel microspheres fixed with natural fluorescent microorganisms Vibrio fischeri is provided, and the quantity of hydrogel microspheres fixed with microorganisms that need to be used is 60. An initial fluorescence intensity of each hydrogel microsphere is detected and recorded, and the hydrogel microspheres are placed in the multi-well exposure tray, the multi-well exposure tray is loaded into the exposure device, and the detection system is sealed. […]
(4) The system-controlled vacuum pump at the distal end of the detection system and the vacuum pump of the gas circulation device are turned on, and the concentrated VOCs is introduced into the exposure device at 0.5 L/min, wherein exposure is set to last 15 min, 30 min, 45 min, and 60 min; and stability of the flowmeter of the gas circulation device and the system-controlled flowmeter at the distal end of the detection system during the process is monitored.
(5) After exposure to VOCs is completed, a microplate reader is used to measure final fluorescence intensity of each hydrogel microsphere, and changes of the initial fluorescence intensity and the final fluorescence intensity are obtained.
Data set [4] deals with recombined Escherichia coli carrying plasmids with different gene pathway. Kind of data set: Genotoxicity of gaseous dimethyl sulfate with the in-situ multi-toxicity endpoint detection system for VOCs (Embodiment 1). To be noted: exposure 20-500 mg/m^3, 15 min, 0.5 L/min.
Protocol: Embodiment 1: Genotoxicity of an artificial gaseous pollutant (dimethyl sulfate) is detected by using the in-situ multi-toxicity endpoint detection system for volatile organic compounds (VOCs) constructed in the present application. Specific steps are as follows:
In this embodiment, a Tenax TA multi-well polymer adsorbent is selected as the adsorption material to be filled in an adsorber of the atmospheric pre-concentrator, and a mixed liquid of 50% of ethanol and 50% of pure water is added to the gas-washing bottle and the high-temperature steam generator.
(2) According to a detection requirement in this embodiment, the quantity of the multi-well exposure tray that need to be loaded is 6, 29 types of hydrogel microspheres fixed with recombined Escherichia coli carrying plasmids with different gene pathway are provided, and the quantity of each type of hydrogel microspheres fixed with microorganisms that need to be used is 15. An initial fluorescence intensity of each hydrogel microsphere is detected and recorded, and the hydrogel microspheres are placed in the multi-well exposure tray, the multi-well exposure tray is loaded into the exposure device, and the detection system is sealed. […]
Setting [5] is: 0.25 h, gaseous exposure, 15 min, 0.5 L/min, read-out: IC50 (15 min) Gaseous.
Where [6] appears, read: 0.5 h, gaseous exposure, 30 min, 0.5 L/min, read-out: IC50 (30 min) Gaseous.
Setting [7] is: 0.75 h, gaseous exposure, 45 min, 0.5 L/min, read-out: IC50 (45 min) Gaseous.
The mark [8] stands for this setting: 1 h, gaseous exposure, 60 min, 0.5 L/min, read-out: IC50 (60 min) Gaseous.
[9] abbreviates: 0.25 h, 15 min, read-out: IC50 (15 min) Liquid.
The mark [10] stands for this setting: 0.5 h, 30 min, read-out: IC50 (30 min) Liquid.
Setting [11] is: 0.75 h, 45 min, read-out: IC50 (45 min) Liquid.
The mark [12] stands for this setting: 1 h, 60 min, read-out: IC50 (60 min) Liquid.

Consider seven molecules from patent US20250115941A1, “Exposure device for exposing microorganisms to gaseous pollutants and detection system thereof” (priority 2023, published 2025).

≈ marks a conversion by molar mass, not a printed value. Structures can show the parent of a compound that is named as a salt.

As to `CC=O` [Acetaldehyde], the IC50 turned out to be 2.12 µg/mL (≈ 48.1 µM) in data set [1] (setting [5]); 1.29 µg/mL (≈ 29.3 µM) in data set [1] (setting [6]); 0.83 µg/mL (≈ 18.8 µM) in data set [1] (setting [7]); 0.49 µg/mL (≈ 11.1 µM) in data set [1] (setting [8]); 640 µg/mL (≈ 14500 µM) in data set [2] (setting [9]); 580 µg/mL (≈ 13200 µM) in data set [2] (setting [10]). For the same molecule, the results for the IC50 in data set [2] (setting [11]) and in data set [2] (setting [12]) were 580 µg/mL (≈ 13200 µM) and 600 µg/mL (≈ 13600 µM), respectively. The “IC50 (15 min) Ratio” value in data set [1] worked out at 302. The “IC50 (30 min) Ratio” value in data set [1] came to 450. In addition, the “IC50 (45 min) Ratio” value in data set [1] is reported as 699. Moreover, in data set [1], the “IC50 (60 min) Ratio” value amounted to 1224.

For `CC(=O)CC(C)=O` [Acetylacetone], the IC50 in data set [1] (setting [5]) was determined as 0.28 µg/mL (≈ 2.8 µM); in data set [1] (setting [6]), 0.19 µg/mL (≈ 1.9 µM); in data set [1] (setting [7]), 0.13 µg/mL (≈ 1.3 µM); in data set [1] (setting [8]), 0.11 µg/mL (≈ 1.1 µM); in data set [2] (setting [9]) it was 280 µg/mL (≈ 2800 µM); in data set [2] (setting [10]), 250 µg/mL (≈ 2500 µM). Also, the IC50 in data set [2] (setting [11]) is 310 µg/mL (≈ 3100 µM); in data set [2] (setting [12]), 250 µg/mL (≈ 2500 µM). The “IC50 (15 min) Ratio” value in data set [1] was determined as 1000. Moreover, in data set [1], the “IC50 (30 min) Ratio” value is 1316. For the same molecule, the “IC50 (45 min) Ratio” value in data set [1] came to 2385. Besides, in data set [1], the “IC50 (60 min) Ratio” value worked out at 2273.

For the molecule `C=O` [Formaldehyde], the IC50 in data set [1] (setting [5]) was determined as 0.00481 µg/mL (≈ 0.16 µM); in data set [1] (setting [6]), 0.00234 µg/mL (≈ 0.0779 µM); in data set [1] (setting [7]), 0.00181 µg/mL (≈ 0.0603 µM); in data set [1] (setting [8]), 0.00129 µg/mL (≈ 0.043 µM); in data set [2] (setting [9]), 16.3 µg/mL (≈ 544 µM); in data set [2] (setting [10]), 15.6 µg/mL (≈ 521 µM). The IC50 in data set [2] (setting [11]) is 15.4 µg/mL (≈ 514 µM); in data set [2] (setting [12]), 14.8 µg/mL (≈ 492 µM). The molecule further came in with a minimum detection limit in data set [1] (gaseous exposure) of 1.3 mg/m^3. Besides, the “IC50 (15 min) Ratio” value in data set [1] is listed as 3395. In addition, in data set [1], the “IC50 (30 min) Ratio” value was 6684. Also, the “IC50 (45 min) Ratio” value in data set [1] is 8519. The “IC50 (60 min) Ratio” value in data set [1] is reported as 11457. The “minimum detection limit at concentration ratio of 10 times” value in data set [3] was found to be 0.13 mg/m^3.

Regarding `CCCCO` [N-butyl alcohol], in data set [1] (gaseous exposure, 15 min, 0.5 L/min), the “IC50 (15 min) Gaseous” value came to 1.05 µg/mL (≈ 14.2 µM). Further, the “IC50 (30 min) Gaseous” value in data set [1] (gaseous exposure, 30 min, 0.5 L/min) was found to be 0.73 µg/mL (≈ 9.85 µM). The “IC50 (45 min) Gaseous” value in data set [1] (gaseous exposure, 45 min, 0.5 L/min) came to 0.53 µg/mL (≈ 7.15 µM). In addition, in data set [1] (gaseous exposure, 60 min, 0.5 L/min), the “IC50 (60 min) Gaseous” value is 0.40 µg/mL (≈ 5.4 µM). Moreover, in data set [1], the “IC50 (15 min) Ratio” value is recorded as 1705, the “IC50 (30 min) Ratio” value is on record as 2521, the “IC50 (45 min) Ratio” value is recorded as 3472 and the “IC50 (60 min) Ratio” value amounted to 4625. For the same molecule, in data set [2] (15 min), the “IC50 (15 min) Liquid” value amounted to 1790 µg/mL (≈ 24100 µM). The “IC50 (30 min) Liquid” value in data set [2] (30 min) was 1840 µg/mL (≈ 24800 µM). Also, the “IC50 (45 min) Liquid” value in data set [2] (45 min) came out at 1840 µg/mL (≈ 24800 µM). The “IC50 (60 min) Liquid” value in data set [2] (60 min) was 1850 µg/mL (≈ 25000 µM).

`Oc1ccccc1` [Phenol]: the IC50 in data set [1] (setting [5]) came out at 0.0689 µg/mL (≈ 0.732 µM); in data set [1] (setting [6]), 0.0363 µg/mL (≈ 0.386 µM); in data set [1] (setting [7]), 0.028 µg/mL (≈ 0.298 µM); in data set [1] (setting [8]), 0.0202 µg/mL (≈ 0.215 µM); in data set [2] (setting [9]), 270 µg/mL (≈ 2870 µM); in data set [2] (setting [10]), 290 µg/mL (≈ 3080 µM). Further, the IC50 in data set [2] (setting [11]) and in data set [2] (setting [12]) was 320 µg/mL (≈ 3400 µM) each time. In data set [1] (gaseous exposure), this molecule returned a minimum detection limit of 20.31 mg/m^3. For the same molecule, the “IC50 (15 min) Ratio” value in data set [1] is recorded as 3921. Besides, the “IC50 (30 min) Ratio” value in data set [1] was found to be 7991. For the same molecule, the “IC50 (45 min) Ratio” value in data set [1] was determined as 11424. Further, the “IC50 (60 min) Ratio” value in data set [1] is reported as 15818. Besides, the “minimum detection limit at concentration ratio of 10 times” value in data set [3] is reported as 2.03 mg/m^3.

Take `c1ccncc1` [Pyridine]: the IC50 in data set [1] (setting [5]) was found to be 1.5 µg/mL (≈ 19 µM); in data set [1] (setting [6]), 1.25 µg/mL (≈ 15.8 µM); in data set [1] (setting [7]) it was 0.88 µg/mL (≈ 11.1 µM); in data set [1] (setting [8]) it was 0.5 µg/mL (≈ 6.32 µM); in data set [2] (setting [9]), 1020 µg/mL (≈ 12900 µM); in data set [2] (setting [10]), 1080 µg/mL (≈ 13700 µM). In addition, the IC50 in data set [2] (setting [11]) turned out to be 1140 µg/mL (≈ 14400 µM); in data set [2] (setting [12]), 1250 µg/mL (≈ 15800 µM). Further, the “IC50 (15 min) Ratio” value in data set [1] came out at 680. Besides, the “IC50 (30 min) Ratio” value in data set [1] worked out at 864. Besides, the “IC50 (45 min) Ratio” value in data set [1] is 1295. In data set [1], the “IC50 (60 min) Ratio” value worked out at 2500.

On to `COS(=O)(=O)OC` [dimethyl sulfate], for which, in data set [4], the “gene pathways significantly upregulated (of 29 key gene pathways)” value is “Nine of these gene pathways are significantly upregulated”; the “genotoxicity / toxicity effects indicated” value is “may cause inhibition of cell division, oxidative stress, protein stress, and severe DNA damage, mutation, and recombination”.

For orientation: IC50 means the concentration that inhibits the measured activity by half.
